The values below come from patent publication US9174998B2, “(6S,9aS)-N-benzyl-6-[(4-hydroxyphenyl)methyl]-4,7-dioxo-8-({6-[3-(piperazin-1-yl)azetidin-1-yl]pyridin-2-yl}methyl)-2-(prop-2-en-1-yl)-octahydro-1H-pyrazino[2,1-c][1,2,4]triazine-1-carboxamide compound” (Eisai R&D Management Co., Ltd., priority 2013, dated 2015).

Converted amounts (≈) assume the structure as drawn.

Series [1] in a line: Evaluation of metabolic stability. The series is classed as in vitro ADME, human. To be noted: 0.2 mg/mL HLM, 0.1 μM test substance, 15 minutes at 37° C., with vs without NADPH production. The method, boiled down: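 Pooled human liver microsomes (0.2 mg/mL) in 0.1 M potassium phosphate pH 7.4 with EDTA, MgCl2 and an NADPH-generating system (NADP+, glucose-6-phosphate, G6PDH). Residual ratio by LC-MS/MS, comparing with versus without NADPH generation.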

In another series the test system is Wnt signal. Kind of series: Detection of Wnt signal (TOPglow luciferase reporter, LiCl-stimulated). Format: cell-based. To be noted: Homo sapiens; HEK293 clone carrying pNeo-TOP reporter; LiCl stimulation; luciferase luminescence; read-out: Test Example 1 IC50 (concentration required for inhibiting the Wnt signal activity by 50%). The method, boiled down: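 Stable HEK293 clone carrying a TOPglow TCF/Wnt-responsive luciferase reporter, stimulated with 80 mM LiCl in the diluted sample medium alongside compound; luminescence read with Bright-Glo 6 h after addition. IC50 derived from activity scaled between LiCl-only wells (100%) and wells lacking both LiCl and sample (0%).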
On the technique in general: Reporter assays use an easily measured gene product as a stand-in for the process of interest.

Series [2] can be described thus: Evaluation of solubility (DMSO stock into PBS, HPLC-UV). Format: physicochemical. To be noted: aqueous buffer, kinetic from dmso stock; Dulbecco's phosphate-buffered saline pH 7, room temperature, about 15 minutes shaking; values greater than 200 μM regarded as 200 μM; read-out: Test Example 3 solubility. The method, boiled down: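 Kinetic solubility: 20 mM DMSO stock spiked into Dulbecco's PBS pH 7, shaken about 15 min at room temperature, then suction-filtered; filtrate quantified by HPLC-UV against a 200 μM DMSO standard. Values above 200 μM are capped at 200 μM.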

The nature of series [3]: PAMPA test (parallel artificial membrane permeability assay). The series is classed as in vitro ADME. To be noted: phosphate buffer pH 6.8, about 200 μM, about 5 hours, room temperature, read-out: Test Example 4 membrane permeation coefficient Pe. Summed up:
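Compounds at about 200 μM in pH 6.8 phosphate buffer with about 1% DMSO on the donor side. Transport across a lipid-precoated PVDF membrane with shaking at 350 rpm, room temperature, about 5 h. Donor and acceptor concentrations measured by HPLC-UV; Pe (cm/s) calculated from these.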
For orientation: PAMPA measures passive passage across an artificial lipid membrane.

Series [4] concerns human chronic myologenous leukemia cell strain K562. Description: Anti-tumor effect in human K562 subcutaneous transplantation model. To be noted: day 28.
A short description of series [5]: Evaluation of solubility (Examples 25 and 26), visual judgment. To be noted: aqueous buffer, thermodynamic from solid; Dulbecco's phosphate-buffered saline pH 7; about 10 mg sample, test solution added in 0.1 mL portions until dissolved. Format: physicochemical. As to the method: About 10 mg of a sample was weighed accurately and placed in a 10-mL polypropylene test tube, a test solution shown below was added thereto by portions (0.1 mL) until the sample was dissolved completely. When the test solution was added, the mixed solution was stirred intermittently in a range from about 30 seconds to 3 minutes using a Vortex mixer every time the test solution was added. The solubility (mM) of the sample was calculated from the added amount of the test solution required until the presence of any solid material was not observed by visual judgment.
Test solution: GIBCO (registered trade name) (Dulbecco's phosphate-buffered saline having a pH value of 7, Invitrogen Corporation)

As for `C=CCN1CC(=O)N2[C@@H](Cc3ccc(O)cc3F)C(=O)N(Cc3cccc(N4CC(N5CCN(CC)CC5)C4)n3)C[C@@H]2N1C(=O)NCc1ccccc1` [Example 1, (6S,9aS)-N-Benzyl-8-((6-(3-(4-ethylpiperazin-1-yl)azetidin-1-yl)pyridin-2-yl)methyl)-6-((2-fluoro-4-hydroxyphenyl)methyl)-4,7-dioxo-2-(prop-2-en-1-yl)-octahydro-1H-pyrazino[2,1-c][1,2,4]triazine-1-carboxamide], in series [1], the “Test Example 2 residual ratio of the test substance” value is 47%. Also, the IC50 in the series with Wnt signal came out at 60 nM. The solubility (usually the dissolved amount per volume that the medium holds) in series [2] turned out to be 197 µM (≈ 143 µg/mL). In addition, in series [3], the Papp is 2.01 ×10⁻⁶ cm/s. Also, the “the number of individuals in which a tumor was not observed by visual judgment/total number of mice” value in series [4] (Compound of Example 1 35 mg/kg oral bid for 5 days combined with Dasatinib 5 mg/kg qd, * P 0.05 or less vs Dasatinib alone (Fisher's test)) is 6/10*; in series [4] (Compound of Example 1 50 mg/kg oral bid for 5 days combined with Dasatinib 5 mg/kg qd, *** P 0.01 or less vs Dasatinib alone (Fisher's test)), 9/10***; in series [4] (Compound of Example 1 75 mg/kg oral bid for 5 days combined with Dasatinib 5 mg/kg qd, *** P 0.01 or less vs Dasatinib alone (Fisher's test)) it was 10/10***.

As for `C=CCN1CC(=O)N2[C@@H](Cc3ccc(OP(=O)(O)O)cc3F)C(=O)N(Cc3cccc(N4CC(N5CCN(CC)CC5)C4)n3)C[C@@H]2N1C(=O)NCc1ccccc1` [Example 25, 4-(((6S,9aS)-1-(Benzylcarbamoyl)-8-((6-(3-(4-ethylpiperazin-1-yl)azetidin-1-yl)pyridin-2-yl)methyl)-4,7-dioxo-2-(prop-2-en-1-yl)-octahydro-1H-pyrazino[2,1-c][1,2,4]triazin-6-yl)methyl)-3-fluorophenyl dihydrogen phosphate], the IC50 with Wnt signal was found to be 180 nM. The solubility in series [5] was at least 124 mM.

In the case of `C=CCN1CC(=O)N2C(CN(Cc3cccc(N4CC(N5CCN(CC)CC5)C4)n3)C(=O)[C@@H]2Cc2ccc(OP(=O)(O)O)cc2)N1C(=O)NCc1ccccc1` (stereo partly drawn) [Example 26, 4-(((6S,9aS)-1-(Benzylcarbamoyl)-8-((6-(3-(4-ethylpiperazin-1-yl)azetidin-1-yl)pyridin-2-yl)methyl-4,7-dioxo-2-(prop-2-en-1-yl)-octahydro-1H-pyrazino[2,1-c][1,2,4]triazin-6-yl)methyl)phenyldihydrogen phosphate], the IC50 in the series on Wnt signal was 1190 nM. This compound also gave a solubility in series [5] of 42 to 62 mM.
